According to patent publication US11780839B2, “Compounds for treating Huntington's disease” (PTC THERAPEUTICS, INC., priority 2018, dated 2023):

The molecules below were run on Endogenous Huntingtin Protein (assay: Endogenous Huntingtin Protein Assay (ELISA-based Meso Scale Discovery electrochemiluminescence)). Conditions: MSD electrochemiluminescence, Table 1.
Format: cell-based
Outline: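 Sandwich MSD electrochemiluminescence immunoassay. Capture used MW1 (expanded polyglutamine) or MAB2166 antibody coated at 1 μg/mL overnight at 4 °C. Samples were bound overnight at 4 °C, then a rabbit monoclonal detection antibody and SULFO-TAG anti-rabbit, each at 0.25 μg/mL, were applied for 1 h at room temperature.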

`CN(c1ncc(-c2ccc(-c3ccc4ncn(C)c4n3)cc2O)nn1)C1CC(C)(C)NC(C)(C)C1` [Cpd 163, 5-(3-methyl-3H-imidazo[4,5-b]pyridin-5-yl)-2-{3-[methyl(2,2,6,6-tetramethylpiperidin-4-yl)amino]-1,2,4-triazin-6-yl}phenol] and `CN(c1ncc(-c2ccc(-c3cn(C)cn3)cc2O)nn1)C1CC(C)(C)NC(C)(C)C1` [Cpd 75, 5-(1-methyl-1H-imidazol-4-yl)-2-{3-[methyl(2,2,6,6-tetramethylpiperidin-4-yl)amino]-1,2,4-triazin-6-yl}phenol] cannot be ordered by IC50: 1000 to 3000 nM for the first, greater than 500 nM for the second.

`CC1(C)CC(Nc2ncc(-c3ccc(-c4cn[nH]c4)cc3O)nn2)CC(C)(C)N1` [Cpd 13, 5-(1H-pyrazol-4-yl)-2-{3-[(2,2,6,6-tetramethylpiperidin-4-yl)amino]-1,2,4-triazin-6-yl}phenol] and `CN(c1ncc(-c2ccc(-c3c[nH]nc3F)cc2O)nn1)C1CC(C)(C)NC(C)(C)C1` [Cpd 12, 5-(3-fluoro-1H-pyrazol-4-yl)-2-{3-[methyl(2,2,6,6-tetramethylpiperidin-4-yl)amino]-1,2,4-triazin-6-yl}phenol] cannot be ordered by IC50: no more than 100 nM for the first, no more than 100 nM for the second.

`Oc1cc(-c2cn[nH]c2)ccc1-c1cnc(N2C[C@@H]3CCCN[C@@H]3C2)nn1` [Cpd 306, 2-{3-[(4aS,7aS)-octahydro-6H-pyrrolo[3,4-b]pyridin-6-yl]-1,2,4-triazin-6-yl}-5-(1H-pyrazol-4-yl)phenol] and `CC(C)N[C@@H]1CCN(c2ncc(-c3ccc(-c4cn[nH]c4)cc3O)nn2)C1` [Cpd 348, 2-(3-{(3R)-3-[(propan-2-yl)amino]pyrrolidin-l-yl}-1,2,4-triazin-6-yl)-5-(1H-pyrazol-4-yl)phenol] cannot be ordered by IC50: 100 to 500 nM for the first, no more than 100 nM for the second.

`CCNC1CCN(c2ncc(-c3ccc(-c4cn[nH]c4)cc3O)nn2)C1` (stereo not drawn) [Cpd 317, 2-{3-[3-(ethylamino)pyrrolidin-1-yl]-1,2,4-triazin-6-yl}-5-(1H-pyrazol-4-yl)phenol] and `Oc1cc(-c2cn[nH]c2)ccc1-c1cnc(N2CCC(NC3CCC(F)C3)C2)nn1` (stereo not drawn) [Cpd 420, 2-(3-{3-[(3-fluorocyclopentyl)amino]pyrrolidin-1-yl}-1,2,4-triazin-6-yl)-5-(1H-pyrazol-4-yl)phenol] cannot be ordered by IC50: no more than 100 nM for the first, no more than 100 nM for the second.

`CN(c1ncc(-c2ccc(-c3ccc4ncccc4c3)cc2O)nn1)C1CC(C)(C)NC(C)(C)C1` [Cpd 185, 2-{3-[methyl(2,2,6,6-tetramethylpiperidin-4-yl)amino]-1,2,4-triazin-6-yl}-5-(quinolin-6-yl)phenol] and `CC(=O)c1cnn(-c2ccc(-c3cnc(N(C)C4CC(C)(C)NC(C)(C)C4)nn3)c(O)c2)c1` [Cpd 68, 1-[1-(3-hydroxy-4-{3-[methyl(2,2,6,6-tetramethylpiperidin-4-yl)amino]-1,2,4-triazin-6-yl}phenyl)-1H-pyrazol-4-yl]ethan-l-one] cannot be ordered by IC50: no more than 100 nM for the first, no more than 100 nM for the second.

`Cc1cnn(-c2ccc(-c3cnc(N(C)C4CC(C)(C)NC(C)(C)C4)nn3)c(O)c2)n1` [Cpd 69, 2-{3-[methyl(2,2,6,6-tetramethylpiperidin-4-yl)amino]-1,2,4-triazin-6-yl}-5-(4-methyl-2H-1,2,3-triazol-2-yl)phenol] and `Oc1cc(-c2cn[nH]c2)ccc1-c1cnc(N2CCC3(CCCNC3)C2)nn1` (stereo not drawn) [Cpd 369, 2-[3-(2,7-diazaspiro[4.5]decan-2-yl)-1,2,4-triazin-6-yl]-5-(1H-pyrazol-4-yl)phenol] cannot be ordered by IC50: no more than 100 nM for the first, no more than 100 nM for the second.
